We go through nine molecules from patent US5015742A, “Synthesis and elucidation of azamitosene and iminoazamitosene” (Arizona Board of Regents, priority 1990, dated 1991).

A short description of data set [1]: Kinetics of hydrolysis and syn/anti isomerization in aqueous buffer. Type of data set: physicochemical. The conditions noted are these: for pKa: aqueous buffer. The source says:
Iminoquinone Fate in Aqueous Buffers. […] Outlined in Scheme 4 below, are the pertinent equilibria and hydrolytic reactions of 2a in aqueous buffer. Above pH 7, the predominate reaction is equilibrium formation of a syn/anti mixture of 2a by general acid/base catalyzed processes. Much below pH 7, the predominate reaction is acid-catalyzed hydrolysis of 2a to the corresponding quinone 1a.
The studies which led to the mechanism outlined in Scheme 4 will now be described. Both hydrolysis and the equilibrium isomerization of pure syn 2a or pure anti 2a are associated with an absorbance change at 320 nm. Plots of absorbance vs time obeyed a first-order rate law over the entire pH range studied. The kobsd values were dependent on the concentration of the buffers employed to hold pH over the range of pH=3 to 9. Lyate-dependent values of kobsd (klyate) were obtained by measuring kobsd values over a 10-fold range of buffer concentration at constant pH and then extrapolating to the klyate value at zero buffer concentration.
The rate law for the reaction of pure syn 2a, based on the mechanism shown in Scheme 4 below, is provided in Equation 1: [formula] wherein: k1, k-1, k2, k3, Ka4 and Ka5 are constants found in Scheme 4 and aH is the proton activity determined with a pH electrode. The first term of equation 1 pertains to the hydrolysis of 2aH^2+ under the conditions aH <Ka5, the second term pertains to hydrolysis of 2aH and third term pertains to the syn/anti equilibration. […] Consistent with the postulated mechanism, the kinetically-obtained value of pKa4 approximates the value obtained by spectrophotometric titration (2.6±0.3).
(§1) Kinetic Studies of Hydrolysis. The hydrolytic studies of 2a and the reoxidation studies of 19 and 20 were carried out in aerobic aqueous buffer at 30.0°±0.2° C. A dimethyl sulfoxide stock of the compound to be studied was prepared fresh and 50 μl of this stock was added to 2.95 mL of buffer. In the cases of 19 and 20, the dimethyl sulfoxide stock was kept under a blanket of argon. The absorbance vs time data were obtained on a Perkin-Elmer 559 or a Lambda-3 UV-vis spectrophotometer and fit to a first-order rate law.

Data set [2] is described as follows: Two-electron reduction potentials by cyclic voltammetry and Nernst fit.
Description: Quinone 1a and iminoquinone 2a two-electron reduction potentials were determined in anaerobic aqueous buffers (μ=1, NaClO4) at 25° C. over the pH range -1 to 10 employing conventional cyclic voltammetry. The working electrode was a graphite mull, the auxillary electrode was platinum, and the reference couple was Ag/AgCl.
The pKa values, with error limits, were determined. spectrophotometrically.
The determination of Em values was carried out with a BAS 27 voltammograph. Measurements were carried out in μ=1.0 (NaClO4) aqueous buffer at 25°-26° C. under an atmosphere of argon with a BAS Ag/AgCl gel electrode as reference. […] The midpoint potential Em was determined from the average of the anodic (Ep,a) and cathodic (Ep,c) potentials.
For each of the redox couples, 1a/20 and 2a/19, >20 Em determinations were made over the pH range studied. For each Em value of a couple, and Eo value was calculated from the Nernst equation substituted with the acid dissociation constants in Table I and the proton activity determined with a pH meter. The average of all Eo determinations was then substituted into the Nernst equation, with which the solid curve for the couple was generated.
Data set [3] in a line: pKa by spectrophotometric titration. It is filed as physicochemical. The conditions noted are these: water, 1.0 m kcl. Here is the method: pKa constants were determined by spectrophotometric titration in μ=1.0 (KCl) aerobic aqueous solvent at 30°±0.2° C. with a Cary 15 outfitted with a titration cell. Acid dissociations from hydroquinones in strong base were measured under an argon atmosphere with Thunberg cuvettes. Details of the methodoloqy employed are found in a previous publication.

Data set [4] concerns cloned human ovarian cancer cell lines. Briefly: Antitumor activity in cloned human ovarian cancer cell lines. Type of data set: cell-based.
In another data set the test system is fresh human colon tumors. Kind of data set: Antitumor activity in fresh human colon tumors. Type of data set: cell-based.
Data set [5] concerns cloned human colon cancer cell lines. Kind of data set: Antitumor activity in cloned human colon cancer cell lines. It is filed as cell-based.
Data set [6] relates to fresh human ovarian tumors. Briefly: Antitumor activity in fresh human ovarian tumors. It is filed as cell-based.
The nature of data set [7]: syn/anti isomerization equilibrium (product study, thermodynamic cycles, NMR). Type of data set: physicochemical. The conditions noted are these: for K for syn/anti isomerization: aqueous buffer. Here is the method:
Below pH 7, the preparative reaction of pure syn 2a afforded a mixture of isomers; [syn 2a]/[anti 2a]=0.7 by ^1 H NMR. [drawing 5]
The K value (~1) for syn/anti isomerization of 2a in aqueous buffer was assessed from […] thermodynamic cycles and from a product study. The results of the product study indicate K=0.7. The two thermodynamic cycles shown in Scheme 4 indicate K=1 to 2. These thermodynamic cycles were constructed by considering that protonation of syn/anti 2a provides the same cationic species 2aH^+ and that acid dissociation from syn/anti 2a probably provides the same anionic species 2aH^-.
The thermoneutral syn/anti isomerization in aqueous buffer requires that the imino proton of anti 2a hydrogen bond to the nitrogen of the enolized acetamido group.
Product Isolation of syn 2a Reaction at pH 8. To a solution of 15 mg (0.058 mmol) of syn 2a in 1 mL of dimethyl sulfoxide was added 4 mL of pH 8 phosphate buffer. The reaction mixture was stirred at room temperature for 48 hours and then diluted with 10 mL of water and extracted 3× with 20 mL portions of chloroform. Concentration of the dried extracts (sodium sulfate) afforded 12 mg (80%) of a mixture of isomers: [syn/anti]=0.7 by ^1 H NMR.

A short description of data set [8]: Aerobic oxidation (oxygen reactivity) of reduced species in aqueous buffer. It is filed as physicochemical. As to the method:
The oxygen reactivity of 19 and 20 was studied in aerobic buffers (μ=1.0, KCl) at 30° C. Both of these species are converted to the corresponding oxidized analogues, 2a and 1a, by first-order processes. Isolation studies and UV-visible spectra of completed reactions confirmed the formation of both analogues. As expected from the relative reduction potentials, the oxidation of 19 is slow enough to be studied up to pH=11 whereas the oxidation of 20 occurs at stopped-flow rates much above neutrality.
The profile for the oxidation of 19 is consistent with oxidation of both the neutral species (19) and the monoprotonated species (19H^+), see Scheme 5, below. [drawing 11] The rate law for the mechanism in Scheme 5 is found in Equation 5. […] The solid curve of Plot B in FIG. 3 was computer generated with equation 5 using the values of the constants shown in Scheme 5. Consistent with the proposed mechanism, the kinetically-determined value of Ka is nearly the same as the value determined spectrophotometrically (9.44, entry 11 of Table I). The greater oxygen reactivity of 19, compared to 19H^+, is consistent with the decreasing Em values (i.e., decreasing stability of the reduced species) observed in the Nernst Fit (Plot B, FIG. 2) at pH values>6.
as §1

For data set [9] the following is noted: comparison or calibration value; cited from earlier work.
[10] abbreviates: N(4)-protonated species, 30° C., μ = 1.0 (KCl).
The mark [11] stands for this setting: amide proton, 30° C., μ = 1.0 (KCl).
Setting [12] is: buffer-catalyzed syn/anti isomerization.

SMILES strings stand for the structures. “Also recorded” adds a separate entry of the source.

`CC(=O)NC1=C(C)C(=O)c2c(nc3n2CCC3OC(C)=O)C1=N` (racemic) [2b, syn/anti 6-Acetamido-5-imino-7-methyl-2,3-dihydro-1H-pyrrolo[1,2-a]benzimidazol-8-one-3-Acetate]: in [1], the “hydrolytic stability below pH 6” value is reported as “extremely slow”.
As for `CC(=O)NC1=C(C)C(=O)c2c(nc3n2CCC3)C1=O` [1a, 6-Acetamido-7-methyl-2,3-dihydro-1H-pyrrolo [1,2-a]benzimidazole-5,8-dione], the “Eo (reduction potential at pH=0)” value in [2] (couple 1a/20, Nernst fit) was 612 mV (NHE). In addition, the “hydrolytic stability, entire pH range studied” value in data set [1] (aqueous solution, pH range -1 to 10) is reported as “hydrolytically stable”. Besides, the pKa in data set [3] (setting [10]) was 1.54 ± 0.06; in [3] (setting [11]), 11.3 ± 0.13.
For `CC(=O)OC1CCn2c1nc1c2C(=O)C(C)=C(N2CC2)C1=O` (centres unmarked) [1c, 6-(N-aziridinyl)-7-methyl-2,3-dihydro-1H-pyrrolo [1,2-a]benzimidazole 5,8-dione-3-Acetate], the antitumor activity result (in data set [4]; in the data set on fresh human colon tumors; in data set [5]; in data set [6]) was “potent antitumor agents” each time.
Regarding `CC1=C(N2CC2)C(=O)c2nc3n(c2C1=O)CCC3OC(N)=O` (centres unmarked) [1d, 6-N-Aziridinyl-7-methyl-2,3-dihydro-1H-pyrrolo [1,2-a]benzimidazole-5,8-dione-3-Carbamate], the antitumor activity result (in [4]; with fresh human colon tumors; in [5]; in data set [6]) was “potent antitumor agents” throughout.
With `CC(=O)NC1=C(C)C(=O)c2c(nc3n2CCC3)C1=N` [2a, syn/anti 6-Acetamido-5-imino-7-methyl-2,3-dihydro-1H-pyrrolo[1,2-a]benzimidazol-8-one], the “Eo (reduction potential at pH=0)” value in data set [2] (couple 2a/19, Nernst fit) is on record as 1.11 V (NHE). Also, in data set [2] (cyclic voltammetry, syn versus anti), the “E values of syn and anti isomers” value was “identical E values for both isomers”. Further, in data set [2] (iminoquinone compared with quinone analogue), the “reduction potential versus quinone” value was “much higher reduction potentials”. Further, the “hydrolytic stability much below pH 6 / in acid” value in data set [1] (acid, much below pH 6) is “rapidly hydrolyses; also recorded: rapidly hydrolyzed”. Further, the pKa in [1] (acid dissociation of 2aH^+ (protonated imine), pH profile FIG. 1, read-out: pKa) was ~2.5; in data set [1] (acid dissociation of diprotonated 2a, pH profile FIG. 1, read-out: pKa), < 0; in data set [1] (kinetically obtained, fit of equation 1, 30° C., read-out: pKa4), 3.4; in data set [3] (setting [10]) it was < 0; in data set [3] (setting [11]), 11.24 ± 0.01; in [3] (protonated imino group (2aH^+), spectrophotometric, 30° C., μ = 1.0 (KCl)), 2.6 ± 0.3. Also, the “hydrolytic stability below pH 6” value in data set [1] was “extremely slow”. For the same molecule, the “k(acetate)” value in data set [1] (setting [12]) was 0.0045 M⁻¹ s⁻¹. In addition, the “k(dibasic phosphate)” value in data set [1] (setting [12]) turned out to be 0.000171 M⁻¹ s⁻¹. In [1] (setting [12]), the “k(monobasic phosphate)” value came out at 0.000421 M⁻¹ s⁻¹. In addition, the “kga for acetic acid” value in data set [1] (general acid catalyzed hydrolysis, pH 3.5 to 6) amounted to 0.003 M⁻¹ s⁻¹. In data set [1] (hydrolysis of diprotonated 2a, fit of equation 1, 30° C.), this molecule gave a k3/Ka5 of 0.045 M⁻¹ s⁻¹. Besides, the “k2 (rate of water addition to 2aH^+)” value in data set [1] (hydrolysis of monoprotonated 2a, 30° C.) came out at 0.048 s⁻¹. Also, the “hydrolytic stability at pH values ≥7” value in data set [1] (pH ≥7) was “hydrolytically stable”. In [1] (pH=7.0, worked out from pKa and k2), the “hydrolysis rate at pH 7.0” value is 1.0×10^-6 s^-1. Further, in data set [1] (syn/anti equilibration, lyate term, above pH 7, 30° C.), the “k1 + k-1” value came out at 1.03e-05 s⁻¹. The “K for syn/anti isomerization” value in data set [7] (overall) is on record as ~ 1; in data set [7] (product study) it was 0.7.
Turning to `CC(=O)Nc1c(C)c(O)c2c(nc3n2CCC3)c1N` [compound 19, 6-Acetamido-5-amino-8-hydroxy-7-methyl-2,3-dihydro-1H-pyrrolo[1,2-a]benzimidazole], the “stability of reduced species in acid” value in data set [2] (acid solution) is given as “acid-stable”. Besides, the pKa in data set [3] (setting [10]) is 3.67 ± 0.16; in [3] (dissociation of hydroxyl, amide and amine protons: 19^2- to 19^3-, approximated) it was > 15; in data set [3] (dissociation of hydroxyl, amide and amine protons: 19^- to 19^2-, approximated), > 15; in data set [3] (dissociation of hydroxyl, amide and amine protons: 19 to 19^-, approximated), > 15; in data set [3] (protonated 5-amino group (19H^+), 30° C., μ = 1.0 (KCl)), 9.44. The “reoxidation rate relative to 20” value in data set [8] (physiological pH) is listed as “two orders of magnitude slower”. Further, the “fold slower oxidation than 20” value in [8] (physiological pH (7.4)) is given as “about 100 ×”.
As to `CC(=O)Nc1c(C)c(O)c2c(nc3n2CCC3)c1O` [compound 20], the pKa was 11.1 in data set [3] (5-OH of hydroquinone, 30° C., μ = 1.0 (KCl)); > 14 in data set [3] (8-OH of hydroquinone (20^- to 20^2-), 30° C., μ = 1.0 (KCl), approximated); 6.02 ± 0.2 in data set [3] (setting [10]); > 14 in [3] (setting [11]). In data set [8] (above pH 7.5), the “oxidation rate above pH 7.5” value is recorded as “too fast to measure”. Besides, the “oxidation rate of 20^-” value in data set [8] (assuming rate-determining oxidation of 20^-) worked out at 1566 s⁻¹.
Regarding `N#CC1=C(C#N)C(=O)C(Cl)=C(Cl)C1=O` [dichlorodicyanoquinone (DDQ), dichlorodicyanoquinone], the Eo in [9] is given as 946 mV, NHE.
Take `CC(=O)NC1=C(C)C(=O)c2c(nc3n2CCC3)C1=N` [syn 2a, 6-Acetamido-5-imino-7-methyl-2,3-dihydro-1H-pyrrolo[1,2-a]benzimidazol-8-one]: the “completed hydrolysis, product by UV-visible spectra” value in [1] (pH 0 to pH 6) was “quantitative formation of 1a”. Besides, the “K for syn/anti equilibration” value in [7] (dimethyl sulfoxide-d6) is listed as 15. In data set [7] (preparative reaction of pure syn 2a, ^1 H NMR, pH 8 phosphate buffer, 48 hours), the “[syn]/[anti] ratio” value is given as 0.7.
